Key:
Format in all cases: cell-based
[1] = target: T1, Tel-Jak3 (Homo sapiens, UniProt P52333); assay: Cellular growth inhibition assay (MTT), Tel-Jak3 transformed BaF3 cell line; conditions: 40 hr incubation, read-out: Jak3: growth inhibitory activity (>50%) in transformed cell line Tel-Jak3
T1 construct: TEL (ETV6, human P41212) N-terminal part encoded by nucleotides 1-487 of TEL; expressed in transfected cells; host or cells: BaF3 (murine) bearing pTET-off, transfected with pTELJAK3 (pTRE2 vector); the other entry of the earlier key: ETV6 (P41212, Transcription factor ETV6)
Source text: (§1) The coding region encompassing nucleotides 1–487 of TELwas amplified by PCR using the oligonucleotides 5TEL (5′-GGAGGATCCTGATCTCTCTCGCTGTGAGAC-3′) and 3TEL (5′-AGGC GTCGACTTCTTCTTCATGGTTCTG-3′) and U937 mRNA as template. A BamHI site was present into the 5TEL Primer, a SalI site was incorporated into the 3TEL primer. The regions encompassing the kinase domains of JAK2 (nucleotides 2994–3914; JAK2F 5′-ACGC GTCGACGGTGCCTTTGAAGACCGGGAT-3′; JAK2R 5′-ATAGTTTAGCGGCCGCTCAGAATGAAGGTCATTT-3′) and JAK3 (nucleotides 2520–3469; JAK3F 5′-GAAGTCGACTATGCCTGCCAAGACCCCACGATCTT-3′; JAK3R 5′-GGATCTAGACTATGAAAAGGACAGGGAGTGGTGTTT-3′) were generated by PCR using Taq DNA Polymerase (Gibco/BRL) and U937 mRNA as template. A SalI site was incorporated into the forward primer of JAK2 and JAK3, a NotI site was incorporated into the JAK2 reverse primer and a Xba I site was added to the reverse primer of JAK3.
(§2) A TEL/Jak2 fusion was generated by digestion of the TELPCR product with BamHI/SalI, digestion of the JAK2 PCR product with SalI/NotI followed by ligation and subcloning into the mammalian expression Vector pTRE 2 (Clontech) digested with BamHI-NotI (pTELJAK2). For JAK3 SalI/NotI cleaved kinase domain PCR product was ligated with BamHI/SalI cleaved TELproduct followed by ligation into BamHI/NotI cleaved pTRE2 (pTELJAK3).
(§3) The growth factor dependent myelomonocytic cell line BaF3 bearing the pTET-off plasmid (Clontech) was transfected with either pTELJAK2 or pTELJAK3 and the cells selected for factor independent growth. BaF 3 wild type cells were cultured in DMEM 10% FCS, 10% WEHI 3B conditioned medium. BaF3 TELJAK cells were cultured in DMEM 10% Tet-System Approved FBS (without WEHI 3B conditioned medium).
(§4) Cell suspensions were prepared by harvesting cells from culture. (Cells used in this test should be in later log phase growth and high viability.) Cells were diluted in correct growth medium to 1.1×final concentration (from 50000 cell/mL to 200,000 cell/mL, depending on cell line).
(§5) Compounds to be tested were added (10 μL, 10×final concentration) to a flat bottom 96-well plate. The cellular suspension (90 μL per well) was added, and the plate incubated for 40 hr at 37° C., 5% CO2. MTT (20 μL per well, 5 mg/mL in PBS) was added and the plates were returned to the incubator for a further 6 hours. Lysis buffer (100 μL per well, 10% SDS, 0.01N HCl) was added and the plate stored in the incubator overnight. The plate was then read at 590 nm.

[2] = tested on: DU145; assay: Cellular growth inhibition assay (MTT), DU145 cells; conditions: Homo sapiens, DU-145, 40 hr incubation, read-out: DU145: growth inhibitory activity
Description: as §4, §5

[3] = target: T2, Tel-Jak2 (Homo sapiens, UniProt O60674); assay: Cellular growth inhibition assay (MTT), Tel-Jak2 transformed BaF3 cell line; conditions: 40 hr incubation, read-out: Jak2: growth inhibitory activity (>50%) in transformed cell line Tel-Jak2
T2 construct: The regions encompassing the kinase domains of JAK2 (nucleotides 2994–3914); TEL (ETV6, human P41212) N-terminal part encoded by nucleotides 1-487 of TEL; expressed in transfected cells; host or cells: BaF3 (murine) bearing pTET-off, transfected with pTELJAK2 (pTRE2 vector); the other entry of the earlier key: ETV6 (P41212, Transcription factor ETV6)
Source text: as §1, §2, §3, §4, §5

T2 sequence (O60674 with tags, fused parts or gaps): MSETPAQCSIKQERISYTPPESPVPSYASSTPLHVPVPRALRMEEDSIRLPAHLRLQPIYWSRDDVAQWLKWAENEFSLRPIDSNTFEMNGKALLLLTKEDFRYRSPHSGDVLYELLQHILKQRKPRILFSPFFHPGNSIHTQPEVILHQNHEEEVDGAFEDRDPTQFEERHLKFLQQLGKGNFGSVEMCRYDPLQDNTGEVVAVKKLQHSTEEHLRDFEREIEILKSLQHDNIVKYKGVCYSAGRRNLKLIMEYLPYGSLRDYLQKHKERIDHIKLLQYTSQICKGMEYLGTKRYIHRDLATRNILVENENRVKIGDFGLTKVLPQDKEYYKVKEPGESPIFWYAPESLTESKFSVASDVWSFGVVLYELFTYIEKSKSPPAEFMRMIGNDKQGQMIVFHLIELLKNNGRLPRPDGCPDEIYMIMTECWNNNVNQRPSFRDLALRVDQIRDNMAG
T1 sequence (P52333 with tags, fused parts or gaps): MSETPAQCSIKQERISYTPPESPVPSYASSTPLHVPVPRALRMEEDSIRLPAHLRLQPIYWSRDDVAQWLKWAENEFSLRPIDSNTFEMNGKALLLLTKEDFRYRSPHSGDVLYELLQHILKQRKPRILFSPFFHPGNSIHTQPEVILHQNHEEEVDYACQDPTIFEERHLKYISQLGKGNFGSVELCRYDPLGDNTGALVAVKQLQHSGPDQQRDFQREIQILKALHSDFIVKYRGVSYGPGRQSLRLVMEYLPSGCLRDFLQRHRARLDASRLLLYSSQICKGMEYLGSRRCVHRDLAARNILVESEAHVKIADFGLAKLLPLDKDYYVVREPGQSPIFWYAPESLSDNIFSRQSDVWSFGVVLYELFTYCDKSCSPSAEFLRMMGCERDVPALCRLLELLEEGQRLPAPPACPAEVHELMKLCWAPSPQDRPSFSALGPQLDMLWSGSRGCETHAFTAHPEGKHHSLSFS

| Structure (SMILES) | inhibition at 50 µM [1] [%] | inhibition at 50 µM [2] [%] | inhibition at 50 µM [3] [%] |
| --- | --- | --- | --- |
| COc1cc(-c2cncc(NC(C)c3ccc(C(N)=O)cc3)n2)ccc1O (stereo not drawn) [Chemistry 304] | > 50 | < 50 | > 50 |
| COc1cc(-c2cncc(NC(C)c3ccc(NCCN4CCN(C)CC4)cc3)n2)ccc1O (stereo not drawn) [Chemistry 318] | > 50 | < 50 | > 50 |
| COc1cc(-c2cncc(NC(C)c3ccc(N)cc3)n2)ccc1O (stereo not drawn) [Chemistry 319] | > 50 | < 50 | > 50 |
| COc1cc(-c2cncc(NC(C)c3ccc(NCc4cccnc4)cc3)n2)ccc1O (stereo not drawn) [Chemistry 320] | > 50 | < 50 | > 50 |
| COc1cc(-c2cncc(NC(C)c3ccc(C(=O)O)cc3)n2)ccc1O (stereo not drawn) [Chemistry 324] | < 50 | < 50 | < 50 |
| COc1cc(-c2cncc(NC(C)c3ccc(C(=O)NCCN(C)C)cc3)n2)ccc1O (stereo not drawn) [Chemistry 352] | > 50 | < 50 | > 50 |
| COc1cc(-c2cncc(NC(C)c3ccc(C(=O)NCC4CC4)cc3)n2)ccc1O (stereo not drawn) [Chemistry 354] | > 50 | < 50 | > 50 |
| CNC(=O)c1ccc(C(C)Nc2cncc(-c3ccc(O)c(OC)c3)n2)cc1 (stereo not drawn) [Chemistry 370] | > 50 | < 50 | > 50 |
| COc1cc(-c2cncc(NC(C)c3ccc(C(=O)NCc4cccnc4)cc3)n2)ccc1O (stereo not drawn) [Chemistry 372] | > 50 | < 50 | > 50 |
| COc1cc(-c2cncc(NC(C)c3ccc(C(=O)NCCO)cc3)n2)ccc1O (stereo not drawn) [Chemistry 374] | > 50 | < 50 | > 50 |

Reference: patent US7122550B2, “Protein kinase inhibitors” (Cytopia Pty Ltd, priority 2002, dated 2006)
